This is an account of results in patent US20070015702A1, “Method of treatment and/or prevention of neuropathic pain” (Asahi Kasei Pharma Corporation, priority 2005, published 2007).

Read-outs that look alike come from different tables or passages of the source.

Data set [1] concerns chronic constriction injury model (CCI model). The experiment in a line: Intermittent subcutaneous administration of elcatonin in CCI model, nociceptive threshold. The data set is classed as in vivo, rat. How it is done: On the 12th day or later after the constriction operation, ECT or vehicle was administered subcutaneously at 0.05 ml/B.W.100 g.
Data set [2] has the same test system. The experiment in a line: Continuous administration of elcatonin in CCI model, hyperalgesia, withdrawal latency (BASILE Plantar Test). The data set is classed as in vivo, rat. How it is done: An apparatus measures a time (withdrawal latency) until escaping after giving nociceptive heat stimulus to a posterior limb in a rat under unrestrained condition. Right hindlimb was measured as a measurement leg. Initially, a rat was placed in an acryl box on a glass plate, and domesticated for about 5 minutes. Amoving type I.R (infrared) generator (I.R. vessel) was placed under the glass plate, and “sight” cross (I.R. irradiation position) inscribed on an upper panel of the I.R. vessel was adjusted to inside of six pads on the right hind paw. In this procedure, contact of the glass plate and hind paw was confirmed. Subsequently, a start key was pushed and heat stimulation was imparted, and withdrawal latency for escaping behavior of a rat of withdrawing limb was measured. When escaping behavior is caused, a switch is automatically turned off, and reaction time is counted. […] Measurement was carried out under clean condition so that there was no feces and no urine on the glass plate.

Data set [3] has the same test system.
Excerpt: Under anesthesia with ether, a rat was placed in prone position, and while touching the right femur, the skin was dissected right above it. Biceps femoris was peeled at the center of the femur, and exposed by about 5 mm trying not to injure the sciatic nerve. Using 4-0 blade silk, the sciatic nerve was liegted loosely 4 times in turn from the peripheral side. Thereafter, the fascia and the skin were sutured.
Using withdrawal threshold and body weight on the 8th day after the constriction operation as indices, the rats were divided into a CCI-vehicle group (12 rats), and CCI-ECT 0.75 mU/kg/week, CCI-ECT 7.5 mU/kg/week and CCI-ECT 75 mU/kg/week groups (each 12 rats), by a randomization method (SAS system, version 8.2). […] Body weight used for administration was estimated body weight after initiation of administration and calculated by multiplying body weight at start of administration by body weight increase coefficient (1.1) obtained in the preliminary experiment. […]
First, the position of a pressure needle was controlled to confirm that an arm was horizontal to the thickness of a rat leg. […] When the rat withdrew the limb, the foot pedal was released, and a numerical value 0 to 25) of the moving matter on a scale was read. The read numerical value was multiplied by 20, to convert into pressed weight (withdrawal threshold). […]
For data set [4] the following is noted: rat, in vivo, sc. The procedure:
Measurement of serum calcium value was conducted using calcium C-test wako (Wako).

For data set [5] the following is noted: Shinyaku to Rinsho, 1990, vol. 39, no. 2; cited from earlier work.

Regarding “1-butylic acid-7-(L-2-aminobutylic acid)-26-L-aspartic acid-27-L-valine-29-L-alaninecalcitonin [elcatonin]”, the “analgesic action (nociceptive threshold)” value is recorded as “a significant action was not observed” in data set [1] (15 U/kg s.c. 3 times a week) and “significant analgesic action” in data set [3] (continuous s.c. mini osmotic pump, 0.75, 7.5, 75 mU/kg/week, from 11th day after constriction operation, vs vehicle group, Williams test). For the same substance, the “day after initiation of administration from which the threshold initiated to recover” value in data set [1] (15 U/kg s.c. 5 times a week) was determined as 4 days. The “effect on nociceptive threshold until 3-rd day after initiation of administration” value in data set [1] (15 U/kg s.c. intermittent, 3 or 5 times a week) is listed as “an effect was not observed”. In addition, the “manifestation of analgesic effect” value in data set [1] (intermittent administration, dose further increased) is recorded as “delay of manifestation of an analgesic effect was not improved”. Moreover, in data set [2] (0.00075-75 U/kg/week continuous), the “extent of analgesic action across dose range” value is “approximately constant”. Also, the “analgesic action on continued administration” value in data set [2] (administration continued for 2 weeks) is reported as “continuance of an analgesic action”. Moreover, the “analgesic action (withdrawal latency)” value in data set [2] (next day after initiation of continuous administration (12th day after operation), 0.00075, 0.0075, 0.075, 7.5, 75 U/kg/week, vs vehicle group) is on record as “significant analgesic action was confirmed in all elcatonin administration groups”. The “time after initiation of administration at which significant analgesic action was recognized” value in data set [3] (continuous s.c. administration, CCI rats) came to 16 h.

Turning to calcitonin, the “dose per unit time (second) at which serum calcium value changed (serum calcium alteration threshold)” value in data set [4] is reported as 15 mU/kg/second. In data set [5], the “ratio of calcitonin dose altering serum calcium value, rat versus human” value was 25 fold. Besides, in data set [2] (Example 2, rat), the “maximum effective dose of neuropathic pain treatment by continuous administration” value came out at 75 U/kg/week and the “maximum effective dose of neuropathic pain treatment by continuous administration, in terms of second” value is listed as 0.124 mU/kg/second.
